Test results taken from patent US10111890B2, “9-aminomethyl minocycline compounds and uses thereof” (Paratek Pharmaceuticals, Inc., priority 2016, dated 2018).

What was measured:
[1] = test system: ABSSSI; test: Earlier Phase 3 i.v.-to-oral omadacycline vs linezolid study in ABSSSI: clinical success; type: in vivo, human; conditions: i.v. with switch to oral
[2] = Phase 3 oral omadacycline vs oral linezolid in ABSSSI: safety (adverse events, TEAEs, vital signs, ECG, laboratory); type: in vivo; conditions: safety population
Source text: An Adverse Event (AE) is any untoward, undesired, or unplanned event in the form of signs, symptoms, disease, or laboratory or physiologic observations occurring in a person given a test article or in a clinical study. […] An AE includes, but is not limited to, the following: any clinically significant worsening of a preexisting condition; an AE occurring from overdose of a test article, whether accidental or intentional; overdose is a dose greater than that specified in the protocol; an AE occurring from abuse (e.g., use for nonclinical reasons) of a test article; and an AE that has been associated with the discontinuation of the use of a test article.
The severity (or intensity) of an AE was classified using the following criteria:
Concerning relatedness, causality (i.e., whether there was a reasonable possibility that test article caused the event) for all AEs and SAEs was assessed.
Safety variables include the incidence rate of AEs, change in vital signs, ECG parameters and laboratory test results obtained during the course of the study. For safety analyses, subjects were analyzed according to the treatment actually received.
Summary tables were provided for all treatment-emergent adverse events (TEAEs). A TEAE is defined as an AE with a start date and time on or after the first dose of test article. […] Additional tabulations provide summaries by SOC and PT of subjects experiencing SAEs, severe TEAEs, TEAEs judged to be related to test article, TEAEs leading to discontinuation of test article, and TEAEs of special interest.
The following variables were analyzed descriptively: Vital signs (systolic and diastolic BP, pulse rate, body temperature, respiratory rate), including change from Screening by visit; Clinically notable vital signs (meeting predefined criteria as specified in the SAP) by visit. Subjects with notable vital signs data were listed.
ECG data (RR interval, PR interval, QRS interval, QTc, QTc Bazett's Correction Formula [QTcB], and QTc Fridericia's Correction Formula [QTcF]) was summarized descriptively at each scheduled evaluation, and for the overall worst post-Screening value. Changes from Screening at each visit that a 12-lead ECG was obtained was also provided. An outlier analysis was conducted based on the worst post-Screening value.
The following variables were analyzed descriptively: Laboratory variables by visit; Change from Screening of laboratory variables by visit; and Clinically notable laboratory values (meeting predefined criteria specified in the SAP) by visit.

[3] = test system: ABSSSI known or suspected to be due to Gram-positive pathogens; test: Phase 3 oral omadacycline vs oral linezolid in ABSSSI: Investigator's Assessment of Clinical Response at PTE; type: in vivo, human; conditions: for Overall Clinical Success at PTE, %: micro-mITT, % of N1
[4] = human, in vivo
[5] = Cellulitis/erysipelas, actual type, mITT
[6] = Cellulitis/erysipelas, as randomized, mITT
[7] = Major Abscess, actual type, mITT
[8] = Major Abscess, as randomized, mITT
[9] = Wound Infection, actual type, mITT
[10] = Wound Infection, as randomized, mITT

SMILES: CC(=O)NCC1CN(c2ccc(N3CCOCC3)c(F)c2)C(=O)O1 (centres unmarked) [Linezolid, N-[[3-(3-fluoro-4-morpholinophenyl)-2-oxooxazolidin-5-yl]methyl]acetamide, reference compound]
- clinical success based on investigator's assessment of clinical response ([1]; 7-14 days after the last dose): 83.6%
- clinical success based on a reduction of lesion size ([1]; 48-72 hours after the first dose, FDA primary analysis population (N=627)): 85.5%
- Subjects who died [2]: 1 (0.3) n (%)
- Subjects with at Least One Adverse Events (AE) [2]: 140 (38.1) n (%)
- Subjects with at Least One Drug-Related Serious TEAE [2]: 1 (0.3) n (%)
- Subjects with at Least One Drug-Related TEAE [2]: 52 (14.2) n (%)
- Subjects with at Least One Serious TEAE [2]: 5 (1.4) n (%)
- Subjects with at Least One Serious TEAE leading to Death [2]: 1 (0.3) n (%)
- Subjects with at Least One Serious TEAEs leading to premature discontinuation of test article [2]: 2 (0.5) n (%)
- Subjects with at Least One Severe TEAE [2]: 7 (1.9) n (%)
- Subjects with at Least One TEAE Leading to Study Drug Discontinuation [2]: 3 (0.8) n (%)
- Subjects with at Least One TEAE leading to dose interruption [2]: 0 n (%)
- Subjects with at Least One TEAE leading to premature discontinuation of study [2]: 1 (0.3) n (%)
- Subjects with at Least One TEAE leading to premature discontinuation of test article [2]: 3 (0.8) n (%)
- TEAE leading to study drug discontinuation: Cellulitis [2]: 0 n (%)
- TEAE leading to study drug discontinuation: Gastrointestinal Disorders (SOC) [2]: 0 n (%)
- TEAE leading to study drug discontinuation: Haematemesis [2]: 0 n (%)
- TEAE leading to study drug discontinuation: Infections And Infestations (SOC) [2]: 1 (0.3) n (%)
- TEAE leading to study drug discontinuation: Nausea [2]: 0 n (%)
- TEAE leading to study drug discontinuation: Pregnancy [2]: 0 n (%)
- TEAE leading to study drug discontinuation: Pregnancy, Puerperium And Perinatal Conditions (SOC) [2]: 0 n (%)
- TEAE leading to study drug discontinuation: Staphylococcal Bacteraemia [2]: 0 n (%)
- TEAE leading to study drug discontinuation: Subcutaneous Abscess [2]: 0 n (%)
- TEAE leading to study drug discontinuation: Vomiting [2]: 0 n (%)
- TEAE leading to study drug discontinuation: Wound Infection [2]: 1 (0.3) n (%)
- TEAE: Alanine Aminotransferase Increased [2]: 11 (3.0) n (%)
- TEAE: Aspartate Aminotransferase Increased [2]: 12 (3.3) n (%)
- TEAE: Cellulitis [2]: 9 (2.5) n (%)
- TEAE: Headache [2]: 8 (2.2) n (%)
- TEAE: Wound Infection [2]: 17 (4.6) n (%)
- Total Number of AEs [2]: 250
- Total Number of TEAEs [2]: 239
- Subjects with at Least One TEAE ([2]; AE overview): 137 (37.3) n (%)
- TEAE: Abdominal Pain Upper ([2]; all severities): 4 (1.1) n (%)
- TEAE: Diarrhea ([2]; all severities): 10 (2.7) n (%)
- TEAE: Nausea ([2]; all severities): 28 (7.6) n (%)
- TEAE: Vomiting ([2]; all severities): 11 (3.0) n (%)
- Subjects with at Least One TEAE, Mild ([2]; highest severity Mild): 85 (23.2) n (%)
- TEAE: Abdominal Pain Upper, Mild ([2]; highest severity Mild): 4 (1.1) n (%)
- TEAE: Abdominal Pain, Mild ([2]; highest severity Mild): 1 (0.3) n (%)
- TEAE: Diarrhea, Mild ([2]; highest severity Mild): 9 (2.5) n (%)
- TEAE: Gastrointestinal Disorders (SOC), Mild ([2]; highest severity Mild): 44 (12.0) n (%)
- TEAE: Nausea, Mild ([2]; highest severity Mild): 24 (6.5) n (%)
- TEAE: Vomiting, Mild ([2]; highest severity Mild): 10 (2.7) n (%)
- Subjects with at Least One TEAE, Moderate ([2]; highest severity Moderate): 45 (12.3) n (%)
- TEAE: Abdominal Pain Upper, Moderate ([2]; highest severity Moderate): 0 n (%)
- TEAE: Abdominal Pain, Moderate ([2]; highest severity Moderate): 1 (0.3) n (%)
- TEAE: Diarrhea, Moderate ([2]; highest severity Moderate): 1 (0.3) n (%)
- TEAE: Gastrointestinal Disorders (SOC), Moderate ([2]; highest severity Moderate): 8 (2.2) n (%)
- TEAE: Nausea, Moderate ([2]; highest severity Moderate): 4 (1.1) n (%)
- TEAE: Vomiting, Moderate ([2]; highest severity Moderate): 1 (0.3) n (%)
- Subjects with at Least One TEAE, Severe ([2]; highest severity Severe): 7 (1.9) n (%)
- TEAE: Abdominal Pain Upper, Severe ([2]; highest severity Severe): 0 n (%)
- TEAE: Abdominal Pain, Severe ([2]; highest severity Severe): 0 n (%)
- TEAE: Diarrhea, Severe ([2]; highest severity Severe): 0 n (%)
- TEAE: Gastrointestinal Disorders (SOC), Severe ([2]; highest severity Severe): 0 n (%)
- TEAE: Nausea, Severe ([2]; highest severity Severe): 0 n (%)
- TEAE: Vomiting, Severe ([2]; highest severity Severe): 0 n (%)
- Subjects with at Least One TEAE ([2]; most frequent (≥2%) TEAEs table): 137 (37.3) n (%)
- Overall clinical response at PTE: Clinical Success ([3]; Cellulitis/erysipelas, actual type of infection, investigator assessment, mITT): 78 (92.9) n (%)
- Overall clinical response at PTE: Clinical Failure [3, 5]: 1 (1.2) n (%)
- Overall clinical response at PTE: Clinical Failure or Indeterminate [3, 5]: 6 (7.1) n (%)
- Overall clinical response at PTE: Indeterminate [3, 5]: 5 (6.0) n (%)
- Overall clinical response at PTE: Clinical Failure [3, 6]: 1 (1.2) n (%)
- Overall clinical response at PTE: Clinical Failure or Indeterminate [3, 6]: 6 (7.1) n (%)
- Overall clinical response at PTE: Indeterminate [3, 6]: 5 (6.0) n (%)
- Overall clinical response at PTE: Clinical Success ([3]; Cellulitis/erysipelas, type of infection as randomized, investigator assessment, mITT): 78 (92.9) n (%)
- Overall clinical response at PTE: Clinical Success ([3]; Major Abscess, actual type of infection, investigator assessment, mITT): 49 (79.0) n (%)
- Overall clinical response at PTE: Clinical Failure [3, 7]: 3 (4.8) n (%)
- Overall clinical response at PTE: Clinical Failure or Indeterminate [3, 7]: 13 (21.0) n (%)
- Overall clinical response at PTE: Indeterminate [3, 7]: 10 (16.1) n (%)
- Overall clinical response at PTE: Clinical Failure [3, 8]: 3 (4.8) n (%)
- Overall clinical response at PTE: Clinical Failure or Indeterminate [3, 8]: 13 (21.0) n (%)
- Overall clinical response at PTE: Indeterminate [3, 8]: 10 (16.1) n (%)
- Overall clinical response at PTE: Clinical Success ([3]; Major Abscess, type of infection as randomized, investigator assessment, mITT): 49 (79.0) n (%)
- Overall clinical response at PTE: Clinical Success ([3]; Wound Infection, actual type of infection, investigator assessment, mITT): 164 (76.6) n (%)
- Overall clinical response at PTE: Clinical Failure [3, 9]: 17 (7.9) n (%)
- Overall clinical response at PTE: Clinical Failure or Indeterminate [3, 9]: 50 (23.4) n (%)
- Overall clinical response at PTE: Indeterminate [3, 9]: 33 (15.4) n (%)
- Overall clinical response at PTE: Clinical Failure [3, 10]: 17 (7.9) n (%)
- Overall clinical response at PTE: Clinical Failure or Indeterminate [3, 10]: 50 (23.4) n (%)
- Overall clinical response at PTE: Indeterminate [3, 10]: 33 (15.4) n (%)
- Overall clinical response at PTE: Clinical Success ([3]; Wound Infection, type of infection as randomized, investigator assessment, mITT): 164 (76.6) n (%)
- Overall Clinical Success at PTE, % ([3]; baseline pathogen Clostridium perfringens, investigator assessment): (77.8) %
- Overall Clinical Success at PTE, % ([3]; baseline pathogen Enterobacter cloacae, investigator assessment): (100.0) %
- Overall Clinical Success at PTE, % ([3]; baseline pathogen Enterococcus faecalis VRE, investigator assessment): (100.0) %
- Overall Clinical Success at PTE, % ([3]; baseline pathogen Enterococcus faecalis VSE, investigator assessment): (70.0) %
- Overall Clinical Success at PTE, % ([3]; baseline pathogen Enterococcus faecalis, investigator assessment): (75.0) %
- Overall Clinical Success at PTE, % ([3]; baseline pathogen Enterococcus faecium VSE, investigator assessment): (100.0) %
- Overall Clinical Success at PTE, % ([3]; baseline pathogen Enterococcus faecium, investigator assessment): (100.0) %
- Overall Clinical Success at PTE, % ([3]; baseline pathogen Escherichia coli, investigator assessment): (100.0) %
- Overall Clinical Success at PTE, % ([3]; baseline pathogen Finegoldia magna, investigator assessment): (0.0) %
- Overall Clinical Success at PTE, % ([3]; baseline pathogen Klebsiella pneumoniae, investigator assessment): (66.7) %
- Overall Clinical Success at PTE, % ([3]; baseline pathogen MRSA, investigator assessment): (79.4) %
- Overall Clinical Success at PTE, % ([3]; baseline pathogen MSSA, investigator assessment): (79.2) %
- Overall Clinical Success at PTE, % ([3]; baseline pathogen Prevotella denticola, investigator assessment): (0.0) %
- Overall Clinical Success at PTE, % ([3]; baseline pathogen Prevotella melaninogenica, investigator assessment): (100.0) %
- Overall Clinical Success at PTE, % ([3]; baseline pathogen Staphylococcus aureus, investigator assessment): (79.8) %
- Overall Clinical Success at PTE, % ([3]; baseline pathogen Streptococcus agalactiae, investigator assessment): (50.0) %
- Overall Clinical Success at PTE, % ([3]; baseline pathogen Streptococcus anginosus group, investigator assessment): (73.3) %
- Overall Clinical Success at PTE, % ([3]; baseline pathogen Streptococcus anginosus, investigator assessment): (80.0) %
- Overall Clinical Success at PTE, % ([3]; baseline pathogen Streptococcus constellatus, investigator assessment): (71.4) %
- Overall Clinical Success at PTE, % ([3]; baseline pathogen Streptococcus intermedius, investigator assessment): (66.7) %
- Overall Clinical Success at PTE, % ([3]; baseline pathogen Streptococcus pyogenes, investigator assessment): (56.3) %
- Overall clinical response at PTE: Clinical Failure ([3]; investigator assessment, CE-PTE): 13 (4.5) n (%)
- Overall clinical response at PTE: Clinical Success ([3]; investigator assessment, CE-PTE (N = 284 / N = 292)): 279 (95.5) n (%)
- Overall clinical response at PTE: Clinical Failure ([3]; investigator assessment, mITT): 21 (5.8) n (%)
- Overall clinical response at PTE: Clinical Failure or Indeterminate ([3]; investigator assessment, mITT): 69 (19.2) n (%)
- Overall clinical response at PTE: Indeterminate ([3]; investigator assessment, mITT): 48 (13.3) n (%)
- Overall clinical response at PTE: Clinical Success ([3]; investigator assessment, mITT (N = 360 per arm)): 291 (80.8) n (%)
- discontinuation due to TEAE, % of subjects [4]: 2.2%
- serious TEAEs, % of subjects [4]: 2.5%
- treatment-emergent adverse events (TEAEs), % of subjects [4]: 45.7%
